Test results from patent US20230123334A1, “AMINO LIPID COMPOUND, PREPARATION METHOD THEREFOR, AND APPLICATION THEREOF” (SHENZHEN SHENXIN BIOTECHNOLOGY CO., LTD., priority 2020, published 2023).

These compounds were tested on HEK293 cells (assay: Preliminary screening as DNA vectors, GFP transfection of HEK293 cells). Settings: amino lipid/DOPE liposome with 75 ng plasmid DNA (psin-EGFP-IRES-Puro); number of GFP-expressing cells divided by total nuclei (Hoechst).
Assay type: cell-based
Summary of the method: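 Lipid + DOPE liposomes (NaOAc, pH 5.6) complexed w/ 75 ng psin-EGFP-IRES-Puro, 30 min RT; added to 3-5×10^4 HEK293/well, 37° C. Hoechst 0.2 μg/mL at 20-24 h, imaged after further 20-24 h. Efficiency = GFP+ cells / total nuclei.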
For `CCCCCCCCCCCCCCCSc1nc(NCC2CCN(C)CC2)nc(SCCCCCCC)n1` [S7S15 D10], the “Absolute DNA transfection efficiency in HEK293 cells” value (shortened to “Absolute DNA transfection efficiency”) was 33.3%. `CCCCCCCCCCCCCCCCSc1nc(NCCN(C)C)nc(SCCCCCCC)n1` [S7S16 D1] was tested, and the “Absolute DNA transfection efficiency” value was 10.0%. `CCCCCCCCCCCCCCCCSc1nc(NCCN2CCOCC2)nc(SCCCCCCC)n1` [S7S16 D2] was tested, and the “Absolute DNA transfection efficiency” value was 17.6%. For `CCCCCCCCCCCCCCCCSc1nc(NCCN2CCCC2)nc(SCCCCCCC)n1` [S7S16 D3], the “Absolute DNA transfection efficiency” value was 6.3%. In the case of `CCCCCCCCCCCCCCCCSc1nc(NCCN2CCCCC2)nc(SCCCCCCC)n1` [S7S16 D4], the “Absolute DNA transfection efficiency” value is reported as 10.9%. For `CCCCCCCCCCCCCCCCSc1nc(NCCN2CCN(C)CC2)nc(SCCCCCCC)n1` [S7S16 D5], the “Absolute DNA transfection efficiency” value was 7.9%. With `CCCCCCCCCCCCCCCCSc1nc(NCCCN(C)C)nc(SCCCCCCC)n1` [S7S16 D6] the “Absolute DNA transfection efficiency” value was 9.0%. `CCCCCCCCCCCCCCCCSc1nc(NCCN(CC)CC)nc(SCCCCCCC)n1` [S7S16 D7] was tested, and the “Absolute DNA transfection efficiency” value was 3.5%. `CCCCCCCCCCCCCCCCSc1nc(NCCCN2CCOCC2)nc(SCCCCCCC)n1` [S7S16 D8] was tested, and the “Absolute DNA transfection efficiency” value was 12.8%. For `CCCCCCCCCCCCCCCCSc1nc(NCCCN2CCN(C)CC2)nc(SCCCCCCC)n1` [S7S16 D9], the “Absolute DNA transfection efficiency” value was 2.3%. For `CCCCCCCCCCCCCCCCSc1nc(NCC2CCN(C)CC2)nc(SCCCCCCC)n1` [S7S16 D10], the “Absolute DNA transfection efficiency” value was 22.2%. For `CCCCCCCCCCCCCCCCCCSc1nc(NCCN(C)C)nc(SCCCCCCC)n1` [S7S18 D1], the “Absolute DNA transfection efficiency” value was 3.7%. For `CCCCCCCCCCCCCCCCCCSc1nc(NCCN2CCOCC2)nc(SCCCCCCC)n1` [S7S18 D2], the “Absolute DNA transfection efficiency” value was 7.1%. With `CCCCCCCCCCCCCCCCCCSc1nc(NCCN2CCCC2)nc(SCCCCCCC)n1` [S7S18 D3] the “Absolute DNA transfection efficiency” value was 11.2%. For `CCCCCCCCCCCCCCCCCCSc1nc(NCCN2CCCCC2)nc(SCCCCCCC)n1` [S7S18 D4], the “Absolute DNA transfection efficiency” value was 8.3%. In the case of `CCCCCCCCCCCCCCCCCCSc1nc(NCCN2CCN(C)CC2)nc(SCCCCCCC)n1` [S7S18 D5], the “Absolute DNA transfection efficiency” value is reported as 14.2%. For `CCCCCCCCCCCCCCCCCCSc1nc(NCCCN(C)C)nc(SCCCCCCC)n1` [S7S18 D6], the “Absolute DNA transfection efficiency” value was 5.5%. With `CCCCCCCCCCCCCCCCCCSc1nc(NCCN(CC)CC)nc(SCCCCCCC)n1` [S7S18 D7] the “Absolute DNA transfection efficiency” value was 7.3%. `CCCCCCCCCCCCCCCCCCSc1nc(NCCCN2CCOCC2)nc(SCCCCCCC)n1` [S7S18 D8] was tested, and the “Absolute DNA transfection efficiency” value was 16.1%. `CCCCCCCCCCCCCCCCCCSc1nc(NCCCN2CCN(C)CC2)nc(SCCCCCCC)n1` [S7S18 D9] was tested, and the “Absolute DNA transfection efficiency” value was 13.1%. With `CCCCCCCCCCCCCCCCCCSc1nc(NCC2CCN(C)CC2)nc(SCCCCCCC)n1` [S7S18 D10] the “Absolute DNA transfection efficiency” value was 48.9%. In the case of `CCCCCCCCCCCCN(CCCCCCCCCCCC)c1nc(NCCN(C)C)nc(SCCCCCCC)n1` [S7^2N12 D1], the “Absolute DNA transfection efficiency” value is reported as 0.2%. `CCCCCCCCCCCCN(CCCCCCCCCCCC)c1nc(NCCN2CCOCC2)nc(SCCCCCCC)n1` [S7^2N12 D2] was tested, and the “Absolute DNA transfection efficiency” value was 0.0%. `CCCCCCCCCCCCN(CCCCCCCCCCCC)c1nc(NCCN2CCCC2)nc(SCCCCCCC)n1` [S7^2N12 D3] was tested, and the “Absolute DNA transfection efficiency” value was 0.1%. In the case of `CCCCCCCCCCCCN(CCCCCCCCCCCC)c1nc(NCCN2CCCCC2)nc(SCCCCCCC)n1` [S7^2N12 D4], the “Absolute DNA transfection efficiency” value is reported as 0.0%. In the case of `CCCCCCCCCCCCN(CCCCCCCCCCCC)c1nc(NCCN2CCN(C)CC2)nc(SCCCCCCC)n1` [S7^2N12 D5], the “Absolute DNA transfection efficiency” value is reported as 0.2%. With `CCCCCCCCCCCCN(CCCCCCCCCCCC)c1nc(NCCCN(C)C)nc(SCCCCCCC)n1` [S7^2N12 D6] the “Absolute DNA transfection efficiency” value was 0.6%. In the case of `CCCCCCCCCCCCN(CCCCCCCCCCCC)c1nc(NCCN(CC)CC)nc(SCCCCCCC)n1` [S7^2N12 D7], the “Absolute DNA transfection efficiency” value is reported as 0.2%. For `CCCCCCCCCCCCN(CCCCCCCCCCCC)c1nc(NCCCN2CCOCC2)nc(SCCCCCCC)n1` [S7^2N12 D8], the “Absolute DNA transfection efficiency” value was 0.0%. With `CCCCCCCCCCCCN(CCCCCCCCCCCC)c1nc(NCCCN2CCN(C)CC2)nc(SCCCCCCC)n1` [S7^2N12 D9] the “Absolute DNA transfection efficiency” value was 0.3%. With `CCCCCCCCCCCCN(CCCCCCCCCCCC)c1nc(NCC2CCN(C)CC2)nc(SCCCCCCC)n1` [S7^2N12 D10] the “Absolute DNA transfection efficiency” value was 0.5%. In the case of `CCCCCCCCSc1nc(NCCCCCC)nc(NCCN(C)C)n1` [S8N6 D1], the “Absolute DNA transfection efficiency” value is reported as 3.4%. In the case of `CCCCCCCCSc1nc(NCCCCCC)nc(NCCN2CCOCC2)n1` [S8N6 D2], the “Absolute DNA transfection efficiency” value is reported as 0.2%. With `CCCCCCCCSc1nc(NCCCCCC)nc(NCCN2CCCC2)n1` [S8N6 D3] the “Absolute DNA transfection efficiency” value was 3.2%. For `CCCCCCCCSc1nc(NCCCCCC)nc(NCCN2CCCCC2)n1` [S8N6 D4], the “Absolute DNA transfection efficiency” value was 2.6%. With `CCCCCCCCSc1nc(NCCCCCC)nc(NCCN2CCN(C)CC2)n1` [S8N6 D5] the “Absolute DNA transfection efficiency” value was 5.0%. For `CCCCCCCCSc1nc(NCCCCCC)nc(NCCCN(C)C)n1` [S8N6 D6], the “Absolute DNA transfection efficiency” value was 4.3%. In the case of `CCCCCCCCSc1nc(NCCCCCC)nc(NCCN(CC)CC)n1` [S8N6 D7], the “Absolute DNA transfection efficiency” value is reported as 1.8%. For `CCCCCCCCSc1nc(NCCCCCC)nc(NCCCN2CCOCC2)n1` [S8N6 D8], the “Absolute DNA transfection efficiency” value was 0.0%. `CCCCCCCCSc1nc(NCCCCCC)nc(NCCCN2CCN(C)CC2)n1` [S8N6 D9] was tested, and the “Absolute DNA transfection efficiency” value was 2.2%. `CCCCCCCCSc1nc(NCCCCCC)nc(NCC2CCN(C)CC2)n1` [S8N6 D10] was tested, and the “Absolute DNA transfection efficiency” value was 0.5%. In the case of `CCCCCCCCSc1nc(NCCCCCCC)nc(NCCN(C)C)n1` [S8N7 D1], the “Absolute DNA transfection efficiency” value is reported as 3.0%. For `CCCCCCCCSc1nc(NCCCCCCC)nc(NCCN2CCOCC2)n1` [S8N7 D2], the “Absolute DNA transfection efficiency” value was 0.4%. For `CCCCCCCCSc1nc(NCCCCCCC)nc(NCCN2CCCC2)n1` [S8N7 D3], the “Absolute DNA transfection efficiency” value was 3.9%. `CCCCCCCCSc1nc(NCCCCCCC)nc(NCCN2CCCCC2)n1` [S8N7 D4] was tested, and the “Absolute DNA transfection efficiency” value was 3.8%. With `CCCCCCCCSc1nc(NCCCCCCC)nc(NCCN2CCN(C)CC2)n1` [S8N7 D5] the “Absolute DNA transfection efficiency” value was 3.6%. With `CCCCCCCCSc1nc(NCCCCCCC)nc(NCCCN(C)C)n1` [S8N7 D6] the “Absolute DNA transfection efficiency” value was 8.5%. `CCCCCCCCSc1nc(NCCCCCCC)nc(NCCN(CC)CC)n1` [S8N7 D7] was tested, and the “Absolute DNA transfection efficiency” value was 1.4%. With `CCCCCCCCSc1nc(NCCCCCCC)nc(NCCCN2CCOCC2)n1` [S8N7 D8] the “Absolute DNA transfection efficiency” value was 0.8%. In the case of `CCCCCCCCSc1nc(NCCCCCCC)nc(NCCCN2CCN(C)CC2)n1` [S8N7 D9], the “Absolute DNA transfection efficiency” value is reported as 3.6%. For `CCCCCCCCSc1nc(NCCCCCCC)nc(NCC2CCN(C)CC2)n1` [S8N7 D10], the “Absolute DNA transfection efficiency” value was 1.2%. For `CCCCCCCCNc1nc(NCCN(C)C)nc(SCCCCCCCC)n1` [S8N8 D1], the “Absolute DNA transfection efficiency” value was 9.3%. With `CCCCCCCCNc1nc(NCCN2CCOCC2)nc(SCCCCCCCC)n1` [S8N8 D2] the “Absolute DNA transfection efficiency” value was 1.5%. `CCCCCCCCNc1nc(NCCN2CCCC2)nc(SCCCCCCCC)n1` [S8N8 D3] was tested, and the “Absolute DNA transfection efficiency” value was 8.5%. `CCCCCCCCNc1nc(NCCN2CCCCC2)nc(SCCCCCCCC)n1` [S8N8 D4] was tested, and the “Absolute DNA transfection efficiency” value was 2.9%. `CCCCCCCCNc1nc(NCCN2CCN(C)CC2)nc(SCCCCCCCC)n1` [S8N8 D5] was tested, and the “Absolute DNA transfection efficiency” value was 9.1%. `CCCCCCCCNc1nc(NCCCN(C)C)nc(SCCCCCCCC)n1` [S8N8 D6] was tested, and the “Absolute DNA transfection efficiency” value was 8.7%. For `CCCCCCCCNc1nc(NCCN(CC)CC)nc(SCCCCCCCC)n1` [S8N8 D7], the “Absolute DNA transfection efficiency” value was 5.2%. With `CCCCCCCCNc1nc(NCCCN2CCOCC2)nc(SCCCCCCCC)n1` [S8N8 D8] the “Absolute DNA transfection efficiency” value was 2.9%. With `CCCCCCCCNc1nc(NCCCN2CCN(C)CC2)nc(SCCCCCCCC)n1` [S8N8 D9] the “Absolute DNA transfection efficiency” value was 7.4%. In the case of `CCCCCCCCNc1nc(NCC2CCN(C)CC2)nc(SCCCCCCCC)n1` [S8N8 D10], the “Absolute DNA transfection efficiency” value is reported as 6.1%. `CCCCCCCCCNc1nc(NCCN(C)C)nc(SCCCCCCCC)n1` [S8N9 D1] was tested, and the “Absolute DNA transfection efficiency” value was 33.6%. For `CCCCCCCCCNc1nc(NCCN2CCOCC2)nc(SCCCCCCCC)n1` [S8N9 D2], the “Absolute DNA transfection efficiency” value was 10.7%. `CCCCCCCCCNc1nc(NCCN2CCCC2)nc(SCCCCCCCC)n1` [S8N9 D3] was tested, and the “Absolute DNA transfection efficiency” value was 32.7%. For `CCCCCCCCCNc1nc(NCCN2CCCCC2)nc(SCCCCCCCC)n1` [S8N9 D4], the “Absolute DNA transfection efficiency” value was 15.5%. With `CCCCCCCCCNc1nc(NCCN2CCN(C)CC2)nc(SCCCCCCCC)n1` [S8N9 D5] the “Absolute DNA transfection efficiency” value was 35.9%. In the case of `CCCCCCCCCNc1nc(NCCCN(C)C)nc(SCCCCCCCC)n1` [S8N9 D6], the “Absolute DNA transfection efficiency” value is reported as 33.3%. In the case of `CCCCCCCCCNc1nc(NCCN(CC)CC)nc(SCCCCCCCC)n1` [S8N9 D7], the “Absolute DNA transfection efficiency” value is reported as 26.0%. `CCCCCCCCCNc1nc(NCCCN2CCOCC2)nc(SCCCCCCCC)n1` [S8N9 D8] was tested, and the “Absolute DNA transfection efficiency” value was 14.8%. For `CCCCCCCCCNc1nc(NCCCN2CCN(C)CC2)nc(SCCCCCCCC)n1` [S8N9 D9], the “Absolute DNA transfection efficiency” value was 32.1%. For `CCCCCCCCCNc1nc(NCC2CCN(C)CC2)nc(SCCCCCCCC)n1` [S8N9 D10], the “Absolute DNA transfection efficiency” value was 36.3%. `CCCCCCCCCCCNc1nc(NCCN(C)C)nc(SCCCCCCCC)n1` [S8N11 D1] was tested, and the “Absolute DNA transfection efficiency” value was 42.2%. With `CCCCCCCCCCCNc1nc(NCCN2CCOCC2)nc(SCCCCCCCC)n1` [S8N11 D2] the “Absolute DNA transfection efficiency” value was 25.4%. For `CCCCCCCCCCCNc1nc(NCCN2CCCC2)nc(SCCCCCCCC)n1` [S8N11 D3], the “Absolute DNA transfection efficiency” value was 52.0%. With `CCCCCCCCCCCNc1nc(NCCN2CCCCC2)nc(SCCCCCCCC)n1` [S8N11 D4] the “Absolute DNA transfection efficiency” value was 14.3%.
